Measured values from patent US20150366839A1, “Schisantherin A for the treatment of neurodegenerative diseases” (priority 2014, published 2015).

How the values were obtained:
DA neurons in zebrafish = assay: Anti-TH whole-mount immunostaining, 6-OHDA-induced DA neuron loss; assay type: in vivo; conditions: 10 μM co-treatment, 250 μM 6-OHDA, 2 days
Procedure: The wild type zebrafish was used for this study.
Zebrafish at one dpf were exposed to 250 μM 6-OHDA in the presence or absence of 10 μM Schi A or 3 μM nomifensine (Nom, a DAT (dopamine transporter) inhibitor used as a positive control) for 2 days. Then zebrafish were collected for immunostaining to detect the DA neurons. Zebrafish were fixed in 4% paraformaldehyde in PBS for 30 min, rinsed, and stored at −20° C. in 100% MtOH. Whole-mount immunostaining was done by standard methods (Zhang, Cheang et al. 2011). Briefly, paraformaldehyde fixed samples were blocked (2% goat serum and 0.1% BSA in PBST,) for 1 h at room temperature. A mouse monoclonal anti-tyrosine hydroxylase antibody (1:200 diluted in blocking buffer) was used as the primary antibody and incubated overnight with the sample at 4° C. […] Semi-quantification TH^+ cells were assessed by an investigator blinded to drug treatment history of zebrafish using Image-Pro Plus 6.0 software (Media Cybernetics, Silver Spring, Md., USA). Results are expressed as percentage of area of TH^+ cells in untreated control group.
To further evaluate the neuroprotective effect of SchiA in vivo, the inventors examined the DA neurons in zebrafish by whole-mount immunofluorescent staining with an antibody against tyrosine hydroxylase (TH). […] Data is expressed as percentage of the control group. […]

[1] = SchiA pharmacokinetics study in plasma; assay type: in vivo, Sprague-Dawley rats; conditions: microemulsion 30 mg/kg
Procedure: Male Sprague-Dawley rats (SD rats) with body weight between 220 and 250 g and age between 6 and 7 weeks were supplied by Guangdong Medical Experiment Animal Center (Guangzhou, China). SchiA was prepared as microemulsion for i.v. and p.o. at 30 mg/kg. The concentration of SchiA microemulsion was 4.9 mg/ml. After administration of SchiA, blood samples were collected at 0.033, 0.167, 0.5, 1, 2, 4, 8, 12, 24 and 36 h, respectively. Plasma samples were obtained after centrifugation of the collected blood samples at 10,000 rpm for 5 min. Subsequently, in 100 μl plasma which was taken from the supernatant, 200 μl of 50% acetonitrile and 50% methanol were added. After vortexing for 20 s and centrifuging at 12,000 rpm for 10 min, the supernatant was collected and filtered through a 0.22 μm membrane, of which 20 μl was injected into the chromatographic system for analysis.
(§1) Quantitative analysis of SchiA was completed on an Agilent series 1260 HPLC apparatus (Agilent Technologies, Santa Clara, Calif., USA) equipped with a vacuum degasser, a quaternary pump, a manual sampler and an ultraviolet detector. RP Phenonenex C-18 column (250 mm×4.6 mm, 5 μm) was used to separate at 35° C. with a mobile phase of water and methanol (83:17, v/v). The flow rate was 1 ml/min. The monitoring wavelength of SchiA was 230 nm.
(§2) And then non-compartmental model of DAS 2.0 program was chosen to calculate the major pharmacokinetic parameters.

[2] = Blood brain barrier experiment; assay type: in vivo, rat
Procedure: To investigate the capability of permeation of blood brain barrier (BBB). On the experimental day, heart perfusion was chosen to clear blood interference at brain under 10% chloralic hydras (i.p. 250 mg/kg) anesthesia, and brain was collected at scheduled time after dosing.
Brain tissues were thawed and homogenized in precooled saline (at the 1:2 g:ml ratio). 250 μl of homogenized solution was added 200 μl acetonitrile and 150 μl methanol. After vortexing for 20 s, centrifugations at 12,000 rpm for 10 min were for the separation. The denatured protein was separated and the supernatant was collected and filtered through a 0.22 μm membrane. A 20 μl volume of the supernatant was injected into HPLC for analysis.
as §1, §2
The treatment of brain disorders drugs should pass through the blood-brain barrier (BBB) to regulate certain receptors in the CNS for producing effect. Thus the inventors examined whether SchiA could pass BBB. […] Generally, drug distribution was depends on the free drug concentration in plasma which could affect the supply to the target disuse. […] P-gp, functioning as an ATP-dependent drug pump, efficiently extrudes intracellular drugs out of cells, especially anticancer drugs. After oral administrated to plasma, lots of SchiA were combined at intestines and hardly entered into brain by passing through the barrier of P-gp. But after an i.v. bolus injection, SchiA which liked an impact was directly entered into systemic circulation and P-gp was saturated with SchiA speedily and SchiA couldn't stay at brain as long as plasma despite the concentration was considerable. Therefore, it is rationalized the SchiA passed through BBB caused by i.v. and it has been hypothesized that P-gp is the major determinant of SchiA pharmacokinetics.

P-gp = P-gp (Homo sapiens, UniProt P08183); conditions: Pan, Lu et al. 2006; cited from earlier work
P-gp, sequence (P08183 whole entry): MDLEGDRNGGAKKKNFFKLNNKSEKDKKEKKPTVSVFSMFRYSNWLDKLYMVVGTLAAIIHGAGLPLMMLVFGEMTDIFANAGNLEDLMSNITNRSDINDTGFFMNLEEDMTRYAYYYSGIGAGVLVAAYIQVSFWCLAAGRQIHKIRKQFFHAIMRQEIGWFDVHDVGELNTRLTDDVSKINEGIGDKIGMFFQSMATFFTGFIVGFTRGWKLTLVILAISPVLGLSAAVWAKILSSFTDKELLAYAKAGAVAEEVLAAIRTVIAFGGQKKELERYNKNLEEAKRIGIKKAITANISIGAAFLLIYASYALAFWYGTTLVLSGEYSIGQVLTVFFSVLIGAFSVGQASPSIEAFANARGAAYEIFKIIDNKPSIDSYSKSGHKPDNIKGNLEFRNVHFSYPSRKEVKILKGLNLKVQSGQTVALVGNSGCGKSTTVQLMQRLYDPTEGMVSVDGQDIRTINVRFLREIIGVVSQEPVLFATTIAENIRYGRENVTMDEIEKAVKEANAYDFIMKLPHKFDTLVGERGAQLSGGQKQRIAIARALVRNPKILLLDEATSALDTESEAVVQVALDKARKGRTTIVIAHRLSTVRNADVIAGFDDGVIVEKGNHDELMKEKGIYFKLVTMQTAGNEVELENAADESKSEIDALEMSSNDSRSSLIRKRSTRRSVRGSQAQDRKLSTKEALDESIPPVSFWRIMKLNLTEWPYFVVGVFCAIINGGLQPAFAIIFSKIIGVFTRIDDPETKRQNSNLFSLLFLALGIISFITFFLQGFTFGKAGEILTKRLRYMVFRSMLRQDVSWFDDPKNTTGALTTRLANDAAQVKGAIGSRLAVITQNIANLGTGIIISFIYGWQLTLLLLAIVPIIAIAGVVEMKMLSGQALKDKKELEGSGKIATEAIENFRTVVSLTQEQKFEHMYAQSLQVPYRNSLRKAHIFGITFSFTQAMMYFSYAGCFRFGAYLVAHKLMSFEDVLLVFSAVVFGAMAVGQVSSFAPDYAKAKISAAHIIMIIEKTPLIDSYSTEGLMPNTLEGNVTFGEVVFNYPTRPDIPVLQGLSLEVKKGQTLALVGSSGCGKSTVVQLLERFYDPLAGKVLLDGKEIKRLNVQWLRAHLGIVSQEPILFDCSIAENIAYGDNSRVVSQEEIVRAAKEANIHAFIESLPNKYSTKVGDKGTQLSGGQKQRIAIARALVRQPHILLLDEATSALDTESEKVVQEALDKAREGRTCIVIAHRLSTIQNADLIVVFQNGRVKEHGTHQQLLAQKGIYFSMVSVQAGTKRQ

Structure (SMILES): COc1cc2c(c(OC)c1OC)-c1c(cc3c(c1OC)OCO3)C[C@H](C)[C@](C)(O)[C@H]2OC(=O)c1ccccc1 [SchiA, Schisantherin A]
- 6-OHDA-induced dopaminergic neuron loss (area of TH+ cells) (DA neurons in zebrafish): attenuate the dopaminergic neuron loss induced by 6-OHDA almost to the normal level
- t1/2 ([1]; i.v.): 15.88 ± 1.82 h
- Tmax ([1]; rat plasma): 1.33 ± 0.58 h
- t1/2 ([1]; p.o.): 16.543 ± 6.95 h
- concentration in brain as % of concentration in plasma ([2]; half an hour post-i.v. bolus injection): 54.5%
- ability to pass the BBB in vivo ([2]; i.v.): able to traverse the BBB in vivo
- detection in brain samples ([2]; i.v., up to 6 h): wasn't detected
- detection in brain ([2]; oral administration): wasn't detected
- P-gp inhibition (P-gp): potent P-gp inhibitor
